{"source": "paper PMC12067741", "about": "“Inhibition of SOD1 trimerization is a novel drug target for ALS disease” (Translational Neurodegeneration, 2025)", "key": {"[1]": {"assay": "Metabolic stability in liver microsomes", "assay_type": "in vitro ADME", "conditions": "human liver microsomes"}, "[2]": {"assay": "Plasma stability", "assay_type": "in vitro ADME", "conditions": "beagle dog plasma, after 120 min of incubation"}, "[3]": {"target": "T1, GST-SOD1-G93A recombinant protein (MT-SOD1) (Homo sapiens, UniProt P00441, G94A)", "T1 construct": "made in house; host or cells: Escherichia coli BL21 (DE3), pCold GST vector", "T1 sequence (P00441 whole entry G94A)": "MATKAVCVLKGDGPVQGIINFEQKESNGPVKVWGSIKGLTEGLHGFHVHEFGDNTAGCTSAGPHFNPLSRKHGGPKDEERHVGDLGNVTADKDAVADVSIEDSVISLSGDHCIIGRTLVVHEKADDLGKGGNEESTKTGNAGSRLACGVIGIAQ", "assay": "GST pull-down with LC-MS/MS of protein-bound compound", "assay_type": "binding", "conditions": "GST pull-down and LC-MS/MS", "method": "To prepare a calibration curve within the PRG-A-04 concentration range of 1–50 ppb, standard solutions (1, 5, 10, 25, 50 ppb) were prepared by dilution with 90% methanol. GST, GST-SOD1 WT, and GST–SOD1-G93A recombinant proteins bound to GST agarose were incubated overnight with PRG-A-04 (20 μmol/L) in cold chamber (4 °C). The samples were washed three times to remove unbound PRG-A-04 from the proteins. The washed sample pellets were incubated with 90% methanol to elute the protein-bound PRG-A-04. The elutes from each sample were analyzed by LC/MS as follows. Both standard samples and control samples underwent the same sample processing procedures as the test samples. The LC–MS/MS analysis was performed on a Waters UPLC Acquity I-class plus system coupled to a Qtrap 6500 plus system (Sciex, Framingham, MA). An Aeris 3.6 μm 100 × 2.1 mm column (Phenomenex, Torrance, CA) was used for separation. The mobile phase consisted of solvent A (water containing 0.1% formic acid) and solvent B (acetonitrile containing 0.1% formic acid). Gradient elution was achieved as follows: […], 90% A, 10% B; 0.37–6.0 min, 55% A, 45% B; 6.0–7.0 min, 5% A, 95% B; 7.0–10.0 min, 90% A, 10% B. The flow rate was 0.4 mL/min. The column temperature was 40 °C, and the sample injection volume was 10 µL. After each injection, the autosampler syringe was washed with methanol. […]"}, "[4]": {"tested_on": "misfolded MT-SOD1", "assay": "Dot blot with misfolded SOD1-specific antibody", "assay_type": "cell-based", "conditions": "24 h treatment", "method": "To detect misfolded SOD1 expression, cells transfected with SOD1 vectors were treated with PRG-A-04 for 24 h. After incubation, cells were lysed with […] NN buffer (50 mmol/L Tris–Cl, pH 7.5, 150 mmol/L NaCl, 0.3% NP-40), and then cell lysates were immobilized on nitrocellulose membrane using the Bio-Dot SF Microfiltration apparatus (Bio-Rad Laboratories, Hercules, CA). The membrane was washed with TBS and blocked by 5% BSA to remove background for 1 h. After blocking, the membrane was incubated with antibody for misfolded SOD1 (1:2000) or actin (1:10,000 in 1% skim milk containing TBST) for 30 min, then reacted with secondary antibody (goat anti-mouse IgG-horseradish peroxidase, 1:50,000 in 1% skim milk blocking buffer) for 30 min. Proteins were detected with ECL and X-ray film exposure. Actin was used as the loading control."}, "[5]": {"tested_on": "MT-SOD1 protein uptake", "assay": "SOD1 recombinant protein uptake into neuronal cells", "assay_type": "cell-based", "method": "For monitoring the localization of SOD1 recombinant proteins, SOD1-Halo proteins were added in neuronal cultures for 2 h and then the cells were incubated with the cell-permeable HaloTag-fluorscent ligands (diAcFAM) for 30 min. After incubation, cells were washed with serum-free culture medium three times and incubated in serum-containing culture medium in a CO2 incubator for 30 min to wash out unbound ligand. Fluorescent images of live cells were obtained using a commercial Tomocube HT-2H holotomography system (Daejeon, Republic of Korea).\nWe hypothesized that PRG-A-04, which targets trimeric SOD1, would inhibit SOD1 protein uptake. MT-SOD1 proteins were incubated with PRG-A-04 in vitro, and then cells were treated with the mixture. The MT-SOD1 protein uptake was reduced by incubation with PRG-A-04, as was SOD1 oligomerization (Fig. 3f, g). […] However, whether neuron-specific receptors on synapses, physiological conditions (neuronal cellular stress such as ion deficiency, environmental conditions such as hypoxia) and other ALS-related genetic causes (TDP-43, FUS, etc.) are essential for SOD1 uptake requires further study.\nFig. S3 SOD1 protein uptake into the cells through endocytosis. a, The uptake of SOD1 proteins was achieved by endocytosis. SH-SY5Y cells were treated with SOD1 recombinant proteins and endocytosis inhibitor (Dynasore; […]) for 6hr. After incubations, cells were harvested with RIPA and separated by SDS-PAGE. S.E: short exposure, L.E: long exposure. b, The recombinant MT-SOD1 protein is located intracellular space in neuron cells. SOD1-Halo proteins (3 μg/ml) were treated in neuron cells for 2 hr and incubated with HaloTag-fluorscent ligands (cellpermeable ligands; diAcFAM) for 30 min. After incubation, cells were washed with fresh culture medium three times and.\nIncubate cells in complete culture medium at CO2 incubator for 30 min to wash unbound ligand. The fluorescence images of live cells were obtained using a commercial holotomography (HT-2H). White arrows indicate the intensity of SOD1. BF; Bright field, Scale bar; […]."}}, "note": "Entries after “also recorded” stand apart in the source; their conditions may differ.", "data": [{"smiles": "COc1cc(C=CCOC2Cc3cc4ccc(=O)oc4cc3OC2(C)C)ccc1[N+](=O)[O-]", "note": "(stereo not drawn) [PRG-A-04]", "values": [{"measurement": "extent of metabolism in liver microsomes", "setting": "[1]", "value": "moderately metabolized"}, {"measurement": "stability in plasma", "setting": "[2]", "value": "stable"}, {"measurement": "binding affinity to MT-SOD1 versus WT-SOD1", "setting": "[3]", "value": "stronger binding affinity to MT-SOD1 than to WT-SOD1 protein"}, {"measurement": "effect on misfolding SOD1", "setting": "[4]", "value": "reduction in misfolding SOD1"}, {"measurement": "effect on MT-SOD1 protein uptake", "setting": "[5]; MT-SOD1 protein pre-incubated with PRG-A-04 in vitro, then added to neuronal cells", "value": "selectively inhibited MT-SOD1 uptake; also recorded: reduced"}, {"measurement": "effect on SOD1 oligomerization induced by SOD1 protein uptake", "setting": "[5]; neuronal cells", "value": "reduced SOD1 oligomerization induced by SOD1 protein uptake"}]}]}
